Reference: patent publication US20210254272A1, “TEXTILES HAVING ANTIMICROBIAL PROPERTIES” (Livinguard AG, priority 2015, published 2021)

What was measured:
[1] = Leaching test: 100 g fabric soaked in 10 liters stagnant distilled water, 3 days (72 hours); format: physicochemical; conditions: for Leaching of active ingredients / Leaching Test-Leaching of active ingredients: pad process; for Leaching of active ingredients: cured 180° C. 2 min; for Leaching Test-Leaching of active ingredients: 2 min
How it was run: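 Test and control fabrics were soaked together in a closed jar. Leached substances in the water were then determined by standard analytical methods.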

[2] = Leaching: 10 grams fabric in 100 milliliters distilled water, 7 days, GC-MS; format: physicochemical
Protocol: To test for a potential leaching of the antimicrobial agents fixed to the textile material, the following test was performed. A test fabric of polyester 65%/cotton 35% with 210 g/m2 was treated with polyhexamethylenebiguanide (PHMB) 0.5%, silver chloride 0.075%, octadecylaminomethyl trihydroxysilylpropyl ammonium chloride (organosilane) 0.4%, and propiconazole 0.5%
The treated textile material was put into distilled water at a ratio of 1:10. Specifically, a fabric of 10 grams was soaked in 100 milliliters of distilled water. The fabric was incubated in the water for 7 days at room temperature, i.e. between 21 and 25° C.
Following said incubation time, the fabric was removed from the water and the exposed water was tested for the presence of the above five active ingredients using gas chromatography-mass spectrometry (GC-MS).

For `CCCC1COC(Cn2cncn2)(c2ccc(Cl)cc2Cl)O1` (stereo not drawn) [Propiconazole, propiconazole], the “Leaching of active ingredients (in ppm)” value ([1]; exhaust 80° C., 60 min, dosage 1% o.w.f (test up to 5% o.w.f)) was 3 ppm, the “Leaching of active ingredients (in ppm)” value ([1]; exhaust 80° C., 60 min, dosage 2% o.w.f) was 26 ppm and the “Leaching of active ingredients (in ppm)” value ([1]; exhaust 80° C., 60 min, dosage 3% o.w.f) was 40 ppm. For the same molecule, the “Leaching of active ingredients (in ppm)” value ([1]; exhaust 80° C., 60 min, dosage 4% o.w.f) was 47 ppm, the “Leaching of active ingredients (in ppm)” value ([1]; exhaust 80° C., 60 min, dosage 5% o.w.f) was 73 ppm and the “Leaching of active ingredients (in ppm)” value ([1]; exhaust 80 ° C., solution dosage 1% o.w.f, process time 10 min) was 38 ppm. For the same molecule, the “Leaching of active ingredients (in ppm)” value ([1]; exhaust 80 ° C., solution dosage 1% o.w.f, process time 20 min) was 26 ppm, the “Leaching of active ingredients (in ppm)” value ([1]; exhaust 80 ° C., solution dosage 1% o.w.f, process time 30 min) was 22 ppm and the “Leaching of active ingredients (in ppm)” value ([1]; exhaust 80 ° C., solution dosage 1% o.w.f, process time 40 min) was 15 ppm. For the same molecule, the “Leaching of active ingredients (in ppm)” value ([1]; exhaust 80 ° C., solution dosage 1% o.w.f, process time 50 min) was 14 ppm, the “Leaching of active ingredients (in ppm)” value ([1]; exhaust 80 ° C., solution dosage 1% o.w.f, process time 55 min) was 7 ppm and the “Leaching of active ingredients (in ppm)” value ([1]; exhaust 80 ° C., solution dosage 1% o.w.f, process time 60 min) was 3 ppm. The “Leaching of active ingredients (in ppm)” value ([1]; exhaust 80 ° C., solution dosage 1% o.w.f, process time 70 min) was 3 ppm, the “Leaching of active ingredients (in ppm)” value ([1]; exhaust 80 ° C., solution dosage 1% o.w.f, process time 80 min) was 4 ppm and the “Leaching of active ingredients (in ppm)” value ([1]; exhaust 80 ° C., solution dosage 1% o.w.f, process time 90 min) was 7 ppm. The “limit on the quantity of the agent that can be adhered to the textile in a non-leaching or substantially non-leaching manner” value ([1]; from Experimental examples I.1 and I.4) was “about 0.25 % o.w.f”, the “Leaching of active ingredients” value ([1]; mixture 1 gm/lit each) was 9 ppm and the “Leaching of active ingredients” value ([1]; mixture 1 gm/lit each, after Washing) was 0.4 ppm. For the same molecule, the “Leaching of active ingredients” value ([1]; mixture 5 gm/lit each) was 13 ppm, the “Leaching of active ingredients” value ([1]; mixture 5 gm/lit each, after Washing) was 0.7 ppm and the “Leaching of active ingredients” value ([1]; mixture 10 gm/lit each) was 24 ppm. The “Leaching of active ingredients” value ([1]; mixture 10 gm/lit each, after Washing) was 0.9 ppm, the “Leaching Test-Leaching of active ingredients” value (from here on “Leaching Test-Leaching”) ([1]; single agent 5 gm/lit, curing 120° C.) was 9 ppm and the “Leaching Test-Leaching” value ([1]; single agent 5 gm/lit, curing 140° C.) was 7 ppm. For the same molecule, the “Leaching Test-Leaching” value ([1]; single agent 5 gm/lit, curing 150° C.) was 5 ppm, the “Leaching Test-Leaching” value ([1]; single agent 5 gm/lit, curing 160° C.) was 4 ppm and the “Leaching Test-Leaching” value ([1]; single agent 5 gm/lit, curing 180° C.) was 1 ppm. For the same molecule, the “Leaching Test-Leaching” value ([1]; single agent 10 gm/lit, curing 120° C.) was 15 ppm, the “Leaching Test-Leaching” value ([1]; single agent 10 gm/lit, curing 140° C.) was 14 ppm and the “Leaching Test-Leaching” value ([1]; single agent 10 gm/lit, curing 150° C.) was 13 ppm. The “Leaching Test-Leaching” value ([1]; single agent 10 gm/lit, curing 160° C.) was 8 ppm, the “Leaching Test-Leaching” value ([1]; single agent 10 gm/lit, curing 180° C.) was 2 ppm and the “Leaching of active ingredient (in ppm)” value ([1]; solution dosage 0.10% o.w.f, exhaust temperature 40° C., process time 60 min) was 0 ppm. For the same molecule, the “Leaching of active ingredient (in ppm)” value ([1]; solution dosage 0.10% o.w.f, exhaust temperature 60° C., process time 60 min) was 0 ppm, the “Leaching of active ingredient (in ppm)” value ([1]; solution dosage 0.10% o.w.f, exhaust temperature 65° C., process time 60 min) was 0 ppm and the “Leaching of active ingredient (in ppm)” value ([1]; solution dosage 0.10% o.w.f, exhaust temperature 70° C., process time 60 min) was 0 ppm. For the same molecule, the “Leaching of active ingredient (in ppm)” value ([1]; solution dosage 0.10% o.w.f, exhaust temperature 75° C., process time 60 min) was 0 ppm, the “Leaching of active ingredient (in ppm)” value ([1]; solution dosage 0.10% o.w.f, exhaust temperature 80° C., process time 60 min) was 0 ppm and the “Leaching of active ingredient (in ppm)” value ([1]; solution dosage 0.10% o.w.f, exhaust temperature 85° C., process time 60 min) was 1 ppm. For the same molecule, the “Leaching of active ingredient (in ppm)” value ([1]; solution dosage 0.10% o.w.f, exhaust temperature 90° C., process time 60 min) was 2 ppm, the “Leaching of active ingredient (in ppm)” value ([1]; solution dosage 0.10% o.w.f, exhaust temperature 95° C., process time 60 min) was 3 ppm and the “Leaching of active ingredient (in ppm)” value ([1]; solution dosage 0.20% o.w.f, exhaust temperature 40° C., process time 60 min) was 0 ppm. For the same molecule, the “Leaching of active ingredient (in ppm)” value ([1]; solution dosage 0.20% o.w.f, exhaust temperature 60° C., process time 60 min) was 0 ppm, the “Leaching of active ingredient (in ppm)” value ([1]; solution dosage 0.20% o.w.f, exhaust temperature 65° C., process time 60 min) was 0 ppm and the “Leaching of active ingredient (in ppm)” value ([1]; solution dosage 0.20% o.w.f, exhaust temperature 70° C., process time 60 min) was 0 ppm. For the same molecule, the “Leaching of active ingredient (in ppm)” value ([1]; solution dosage 0.20% o.w.f, exhaust temperature 75° C., process time 60 min) was 0 ppm, the “Leaching of active ingredient (in ppm)” value ([1]; solution dosage 0.20% o.w.f, exhaust temperature 80° C., process time 60 min) was 0 ppm and the “Leaching of active ingredient (in ppm)” value ([1]; solution dosage 0.20% o.w.f, exhaust temperature 85° C., process time 60 min) was 2 ppm. The “Leaching of active ingredient (in ppm)” value ([1]; solution dosage 0.20% o.w.f, exhaust temperature 90° C., process time 60 min) was 4 ppm, the “Leaching of active ingredient (in ppm)” value ([1]; solution dosage 0.20% o.w.f, exhaust temperature 95° C., process time 60 min) was 4 ppm and the “Leaching of active ingredient (in ppm)” value ([1]; solution dosage 0.50% o.w.f, exhaust temperature 40° C., process time 60 min) was 0 ppm. For the same molecule, the “Leaching of active ingredient (in ppm)” value ([1]; solution dosage 0.50% o.w.f, exhaust temperature 60° C., process time 60 min) was 1 ppm, the “Leaching of active ingredient (in ppm)” value ([1]; solution dosage 0.50% o.w.f, exhaust temperature 65° C., process time 60 min) was 1 ppm and the “Leaching of active ingredient (in ppm)” value ([1]; solution dosage 0.50% o.w.f, exhaust temperature 70° C., process time 60 min) was 1 ppm. For the same molecule, the “Leaching of active ingredient (in ppm)” value ([1]; solution dosage 0.50% o.w.f, exhaust temperature 75° C., process time 60 min) was 1 ppm, the “Leaching of active ingredient (in ppm)” value ([1]; solution dosage 0.50% o.w.f, exhaust temperature 80° C., process time 60 min) was 1 ppm and the “Leaching of active ingredient (in ppm)” value ([1]; solution dosage 0.50% o.w.f, exhaust temperature 85° C., process time 60 min) was 3 ppm. The “Leaching of active ingredient (in ppm)” value ([1]; solution dosage 0.50% o.w.f, exhaust temperature 90° C., process time 60 min) was 5 ppm, the “Leaching of active ingredient (in ppm)” value ([1]; solution dosage 0.50% o.w.f, exhaust temperature 95° C., process time 60 min) was 6 ppm and the “Leaching of active ingredient (in ppm)” value ([1]; solution dosage 0.80% o.w.f, exhaust temperature 40° C., process time 60 min) was 0 ppm. The “Leaching of active ingredient (in ppm)” value ([1]; solution dosage 0.80% o.w.f, exhaust temperature 60° C., process time 60 min) was 2 ppm, the “Leaching of active ingredient (in ppm)” value ([1]; solution dosage 0.80% o.w.f, exhaust temperature 65° C., process time 60 min) was 1 ppm and the “Leaching of active ingredient (in ppm)” value ([1]; solution dosage 0.80% o.w.f, exhaust temperature 70° C., process time 60 min) was 2 ppm. For the same molecule, the “Leaching of active ingredient (in ppm)” value ([1]; solution dosage 0.80% o.w.f, exhaust temperature 75° C., process time 60 min) was 2 ppm, the “Leaching of active ingredient (in ppm)” value ([1]; solution dosage 0.80% o.w.f, exhaust temperature 80° C., process time 60 min) was 1 ppm and the “Leaching of active ingredient (in ppm)” value ([1]; solution dosage 0.80% o.w.f, exhaust temperature 85° C., process time 60 min) was 4 ppm. For the same molecule, the “Leaching of active ingredient (in ppm)” value ([1]; solution dosage 0.80% o.w.f, exhaust temperature 90° C., process time 60 min) was 6 ppm, the “Leaching of active ingredient (in ppm)” value ([1]; solution dosage 0.80% o.w.f, exhaust temperature 95° C., process time 60 min) was 7 ppm and the “Leaching of active ingredient (in ppm)” value ([1]; solution dosage 1.00% o.w.f, exhaust temperature 40° C., process time 60 min) was 0 ppm. The “Leaching of active ingredient (in ppm)” value ([1]; solution dosage 1.00% o.w.f, exhaust temperature 60° C., process time 60 min) was 8 ppm, the “Leaching of active ingredient (in ppm)” value ([1]; solution dosage 1.00% o.w.f, exhaust temperature 65° C., process time 60 min) was 7 ppm and the “Leaching of active ingredient (in ppm)” value ([1]; solution dosage 1.00% o.w.f, exhaust temperature 70° C., process time 60 min) was 4 ppm. The “Leaching of active ingredient (in ppm)” value ([1]; solution dosage 1.00% o.w.f, exhaust temperature 75° C., process time 60 min) was 3 ppm, the “Leaching of active ingredient (in ppm)” value ([1]; solution dosage 1.00% o.w.f, exhaust temperature 80° C., process time 60 min) was 1.5 ppm and the “Leaching of active ingredient (in ppm)” value ([1]; solution dosage 1.00% o.w.f, exhaust temperature 85° C., process time 60 min) was 8 ppm. For the same molecule, the “Leaching of active ingredient (in ppm)” value ([1]; solution dosage 1.00% o.w.f, exhaust temperature 90° C., process time 60 min) was 9 ppm, the “Leaching of active ingredient (in ppm)” value ([1]; solution dosage 1.00% o.w.f, exhaust temperature 95° C., process time 60 min) was 9 ppm and the “Extracted water Conc, ppm” value [2] was “BDL (BDL-below detection limit Detection limit: 1 parts per million (ppm))”.
